Data from US20150291598A1 (NOVARTIS AG, priority 2012, published 2015).

System: P. falciparum (NF54 or 3D7 strain)
Assay: Assay for P. falciparum proliferation in infected human blood cells (SYBR Green)
Type: cell-based, Plasmodium falciparum
Details: Plasmodium falciparum, Erythrocyte, 72 h, NF54 or 3D7 infected human erythrocytes, 72 hours; read-out: EC50 (nM), inhibitory efficacy in delaying P. falciparum proliferation in infected human blood cells
Outline: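 NF54 or 3D7 parasites in O+ human erythrocytes at 2.5% hematocrit and 0.3% parasitemia final, exposed to compounds 72 h at 37 °C under 93% N2/4% CO2/3% O2.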

| SMILES | EC50 |
| --- | --- |
| CN(C(=O)c1cn2c(-c3ccc(C(F)(F)F)cc3)cnc2cn1)c1ccc(F)cc1 [Compound 101, N-(4-fluorophenyl)-N-methyl-3-[4-(trifluoromethyl)phenyl]imidazo[1,2-a]pyrazine-6-carboxamide] | 33 nM |
| CN(C(=O)c1cn2c(-c3ccc(-c4ccn[nH]4)cc3)cnc2cn1)c1ccc(S(C)(=O)=O)cc1 [Compound 131, N-(4-methanesulfonylphenyl)-N-methyl-3-[4-(1H-pyrazol-5-yl)phenyl]imidazo[1,2-a]pyrazine-6-carboxamide] | 140 nM |
| COc1ccc(-c2cnc3cnc(C(=O)N(C)c4ccc(F)cc4)cn23)cc1 [Compound 69, N-(4-fluorophenyl)-3-(4-methoxyphenyl)-N-methylimidazo[1,2-a]pyrazine-6-carboxamide] | 85 nM |
| CN(C(=O)c1cn2c(-c3ccc(OCC(F)(F)F)cc3)cnc2cn1)c1ccc(C#N)cc1 [Compound 138, N-(4-cyanophenyl)-N-methyl-3-[4-(2,2,2-trifluoroethoxy)phenyl]imidazo[1,2-a]pyrazine-6-carboxamide] | 849 nM |
| CN(C(=O)c1cn2c(-c3ccc(OC(C)(C)C(N)=O)cc3)cnc2cn1)c1ccc(C#N)cc1 [Compound 352, 3-[4-(1-carbamoyl-1-methylethoxy)phenyl]-N-(4-cyanophenyl)-N-methylimidazo[1,2-a]pyrazine-6-carboxamide] | 876 nM |
| CCn1nccc1NC(=O)c1cn2c(-c3ccc(C(F)(F)F)cc3)cnc2cn1 [Compound 368, N-(1-ethyl-1H-pyrazol-5-yl)-3-[4-(trifluoromethyl)phenyl]imidazo[1,2-a]pyrazine-6-carboxamide] | 7040 nM |
| CN(C(=O)c1cn2c(-c3ccc(C(F)(F)F)cc3)cnc2cn1)c1ccc(F)cc1F [Compound 23, N-(2,4-difluorophenyl)-N-methyl-3-[4-(trifluoromethyl)phenyl]imidazo[1,2-a]pyrazine-6-carboxamide] | 99 nM |
| CN(C(=O)c1cn2c(-c3ncc(F)cc3F)cnc2cn1)c1ccc(C#N)cc1 [Compound 29, N-(4-cyanophenyl)-3-(3,5-difluoropyridin-2-yl)-N-methylimidazo[1,2-a]pyrazine-6-carboxamide] | 2040 nM |
| CN(Cc1cccnc1)C(=O)c1cn2c(-c3ccc(C(F)(F)F)cc3)cnc2cn1 [Compound 194, N-methyl-N-(pyridin-3-ylmethyl)-3-[4-(trifluoromethyl)phenyl]imidazo[1,2-a]pyrazine-6-carboxamide] | 6950 nM |
| COc1ccc(-c2cnc3cnc(C(=O)N(C)c4ccc(C#N)cc4)cn23)c(F)c1 [Compound 65, N-(4-cyanophenyl)-3-(2-fluoro-4-methoxyphenyl)-N-methylimidazo[1,2-a]pyrazine-6-carboxamide] | 354 nM |
| CN(Cc1cn2c(-c3ccc(Cl)cc3)cnc2cn1)c1ccc(Cl)cc1 [Compound 44, 4-chloro-N-{[3-(4-chlorophenyl)imidazo[1,2-a]pyrazin-6-yl]methyl}-N-methylaniline] | 206 nM |
| Cc1nc(C(=O)N2CCCc3cc(F)ccc32)cn2c(-c3ccc(C(F)(F)F)cc3)cnc12 [Compound 411, 6-fluoro-1-({8-methyl-3-[4-(trifluoromethyl)phenyl]imidazo[1,2-a]pyrazin-6-yl}carbonyl)-1,2,3,4-tetrahydroquinoline] | > 7570 nM |
| CN1CCc2cc(-c3cnc4cnc(C(=O)N(C)c5ccc(C#N)cc5)cn34)ccc21 [Compound 201, N-(4-cyanophenyl)-N-methyl-3-(1-methyl-2,3-dihydro-1H-indol-5-yl)imidazo[1,2-a]pyrazine-6-carboxamide] | 1080 nM |
| CN(C(=O)c1cn2c(-c3ccc(C#N)nc3)cnc2cn1)c1ccc(C#N)cc1 [Compound 401, N-(4-cyanophenyl)-3-(6-cyanopyridin-3-yl)-N-methylimidazo[1,2-a]pyrazine-6-carboxamide] | > 10000 nM |
| NC(=O)c1ccc(NC(=O)c2cn3c(-c4ccc(C(F)(F)F)cc4)cnc3cn2)nc1 [Compound 371, 2-C-3-[4-(trifluoromethyl)phenyl]imidazo[1,2-a]pyrazine-6-pyridine-2,5-dicarboxamide] | > 10000 nM |
| CN(C)c1ccc(-c2cnc3cnc(CN(C)c4ccc(F)cc4)cn23)cc1 [Compound 36, 4-(6-{[(4-fluorophenyl)(methyl)amino]methyl}imidazo[1,2-a]pyrazin-3-yl)-N,N-dimethylaniline] | 329 nM |
| Cc1nnc(-c2ccc(-c3cnc4cnc(C(=O)N(C)c5ccc(Cl)nc5)cn34)cn2)o1 [Compound 367, N-(6-chloropyridin-3-yl)-N-methyl-3-[6-(5-methyl-1,3,4-oxadiazol-2-yl)pyridin-3-yl]imidazo[1,2-a]pyrazine-6-carboxamide] | > 9280 nM |
| CN(C(=O)c1cn2c(-c3ccc(C(F)(F)F)cc3)cnc2cn1)c1ccc(S(C)(=O)=O)cn1 [Compound 317, N-(5-methanesulfonylpyridin-2-yl)-N-methyl-3-[4-(trifluoromethyl)phenyl]imidazo[1,2-a]pyrazine-6-carboxamide] | 1900 nM |

| SMILES | EC50 |
| --- | --- |
| CN(C(=O)c1cn2c(-c3ccc(C(F)F)cc3)cnc2cn1)c1ccc(C#N)cn1 [Compound 95, N-(5-cyanopyridin-2-yl)-3-[4-(difluoromethyl)phenyl]-N-methylimidazo[1,2-a]pyrazine-6-carboxamide] | 1050 nM |
| CN(C(=O)c1cn2c(-c3ccc(-n4cccn4)cc3)cnc2cn1)c1ccc(F)cc1 [Compound 151, N-(4-fluorophenyl)-N-methyl-3-[4-(1H-pyrazol-1-yl)phenyl]imidazo[1,2-a]pyrazine-6-carboxamide] | 673 nM |
| CN(C(=O)c1cn2c(-c3ccc(NS(C)(=O)=O)cc3)cnc2cn1)c1ccc(C#N)cc1 [Compound 314, N-(4-cyanophenyl)-3-(4-methanesulfonamidophenyl)-N-methylimidazo[1,2-a]pyrazine-6-carboxamide] | 1040 nM |
| CN(C(=O)c1cn2c(-c3ccc(C(=O)NC4CC4)cc3)cnc2cn1)c1ccc(Cl)nc1 [Compound 343, N-(6-chloropyridin-3-yl)-3-[4-(cyclopropylcarbamoyl)phenyl]-N-methylimidazo[1,2-a]pyrazine-6-carboxamide] | 6780 nM |
| CC1(C)CN(C(=O)c2cn3c(-c4ccc(C(F)(F)F)cc4)cnc3cn2)c2ccc(C#N)cc2O1 [Compound 350, 2,2-dimethyl-4-({3-[4-(trifluoromethyl)phenyl]imidazo[1,2-a]pyrazin-6-yl}carbonyl)-3,4-dihydro-2H-1,4-benzoxazine-7-carbonitrile] | > 5630 nM |
| COc1ncc(C)cc1N(C)C(=O)c1cn2c(-c3ccc(C(F)(F)F)cc3)cnc2cn1 [Compound 250, N-(2-methoxy-5-methylpyridin-3-yl)-N-methyl-3-[4-(trifluoromethyl)phenyl]imidazo[1,2-a]pyrazine-6-carboxamide] | 302 nM |
| CN(C)Cc1ccc(-c2cnc3cnc(C(=O)N(C)c4ccc(C#N)cc4)cn23)cc1 [Compound 207, N-(4-cyanophenyl)-3-{4-[(dimethylamino)methyl]phenyl}-N-methylimidazo[1,2-a]pyrazine-6-carboxamide] | 4600 nM |
| CN(C(=O)c1cn2c(-c3ccc(C(F)F)cc3)cnc2cn1)c1ccc(C#N)cc1 [Compound 57, N-(4-cyanophenyl)-3-[4-(difluoromethyl)phenyl]-N-methylimidazo[1,2-a]pyrazine-6-carboxamide] | 70 nM |
| CN(C(=O)c1ccc(F)cc1)c1cn2c(-c3ccc(C(F)(F)F)cc3)cnc2cn1 [Compound 268, 4-fluoro-N-methyl-N-{3-[4-(trifluoromethyl)phenyl]imidazo[1,2-a]pyrazin-6-yl}benzamide] | 112 nM |
| CN(C(=O)c1cn2c(-c3ccc(C#N)cc3)c(C(F)(F)F)nc2cn1)c1ccc(C#N)cc1 [Compound 341, N,3-bis(4-cyanophenyl)-N-methyl-2-(trifluoromethyl)imidazo[1,2-a]pyrazine-6-carboxamide] | 5790 nM |
| CN(C(=O)c1cn2c(-c3ccc(C(F)(F)F)cc3)cnc2cn1)c1ccncc1 [Compound 249, N-methyl-N-(pyridin-4-yl)-3-[4-(trifluoromethyl)phenyl]imidazo[1,2-a]pyrazine-6-carboxamide] | 635 nM |
| NC(=O)c1nc[nH]c1NC(=O)c1cn2c(-c3ccc(C(F)(F)F)cc3)cnc2cn1 [Compound 404, 5-C-3-[4-(trifluoromethyl)phenyl]imidazo[1,2-a]pyrazine-6-1H-imidazole-4,5-dicarboxamide] | > 7570 nM |
| CN(C(=O)c1cn2c(-c3ccc(C(F)(F)F)cc3)cnc2cn1)c1ccc(Br)nc1 [Compound 58, N-(6-bromopyridin-3-yl)-N-methyl-3-[4-(trifluoromethyl)phenyl]imidazo[1,2-a]pyrazine-6-carboxamide] | 1140 nM |
| CN(C(=O)c1cncnc1)c1cn2c(-c3ccc(C(F)(F)F)cc3)cnc2cn1 [Compound 498, N-methyl-N-{3-[4-(trifluoromethyl)phenyl]imidazo[1,2-a]pyrazin-6-yl}pyrimidine-5-carboxamide] | 5690 nM |
| CN(C(=O)c1cn2c(-c3ccc(-c4nnn[nH]4)cc3)cnc2cn1)c1ccc(C#N)cc1 [Compound 180, N-(4-cyanophenyl)-N-methyl-3-[4-(1H-1,2,3,4-tetrazol-5-yl)phenyl]imidazo[1,2-a]pyrazine-6-carboxamide] | 4340 nM |
| CN(C(=O)c1cn2c(-c3ccc4c(cnn4C)c3)cnc2cn1)c1ccc(F)c(F)c1 [Compound 53, N-(3,4-difluorophenyl)-N-methyl-3-(1-methyl-1H-indazol-5-yl)imidazo[1,2-a]pyrazine-6-carboxamide] | 12 nM |
| CC(C)OC(=O)Nc1ccc(-c2cnc3cnc(C(=O)N(C)c4ccc(C#N)cc4)cn23)cc1 [Compound 261, Propan-2-yl N-(4-{6-[(4-cyanophenyl)(methyl)carbamoyl]imidazo[1,2-a]pyrazin-3-yl}phenyl)carbamate] | 408 nM |
| CN(C(=O)N1CCC(F)CC1)c1cn2c(-c3ccc(C(F)(F)F)cc3)cnc2cn1 [Compound 322, 4-fluoro-N-methyl-N-{3-[4-(trifluoromethyl)phenyl]imidazo[1,2-a]pyrazin-6-yl}piperidine-1-carboxamide] | 2710 nM |
